Laboratory results: the NIST ThermoML archive (doi:10.1021/je800224k)

Details: Liquid

CCCCCCCC[n+]1ccn(C)c1.F[P-](F)(F)(F)(F)F [1-octyl-3-methylimidazolium hexafluorophosphate]
Details	mass density [kg/m3]
293.15 K, 101.33 kPa, Vibrating tube method	1240.8
312.8 K, 10000 kPa, Bellows volumetry	1230
312.8 K, 20000 kPa, Bellows volumetry	1236
312.8 K, 30000 kPa, Bellows volumetry	1241
312.8 K, 40000 kPa, Bellows volumetry	1247
312.8 K, 50000 kPa, Bellows volumetry	1252
312.8 K, 60000 kPa, Bellows volumetry	1257
312.8 K, 70000 kPa, Bellows volumetry	1261
312.8 K, 80000 kPa, Bellows volumetry	1266
312.8 K, 90000 kPa, Bellows volumetry	1270
312.8 K, 100000 kPa, Bellows volumetry	1275
312.8 K, 110000 kPa, Bellows volumetry	1279
312.8 K, 120000 kPa, Bellows volumetry	1283
312.8 K, 130000 kPa, Bellows volumetry	1287
312.8 K, 140000 kPa, Bellows volumetry	1291
312.8 K, 150000 kPa, Bellows volumetry	1294
312.8 K, 160000 kPa, Bellows volumetry	1298
312.8 K, 170000 kPa, Bellows volumetry	1302
312.8 K, 180000 kPa, Bellows volumetry	1305
312.8 K, 190000 kPa, Bellows volumetry	1309
312.8 K, 200000 kPa, Bellows volumetry	1312
313.15 K, 101.33 kPa, Vibrating tube method	1225
332.6 K, 10000 kPa, Bellows volumetry	1215
332.6 K, 20000 kPa, Bellows volumetry	1221
332.6 K, 30000 kPa, Bellows volumetry	1227
332.6 K, 40000 kPa, Bellows volumetry	1233
332.6 K, 50000 kPa, Bellows volumetry	1238
332.6 K, 60000 kPa, Bellows volumetry	1243
332.6 K, 70000 kPa, Bellows volumetry	1248
332.6 K, 80000 kPa, Bellows volumetry	1253
332.6 K, 90000 kPa, Bellows volumetry	1257
332.6 K, 100000 kPa, Bellows volumetry	1262
332.6 K, 110000 kPa, Bellows volumetry	1266
332.6 K, 120000 kPa, Bellows volumetry	1270
332.6 K, 130000 kPa, Bellows volumetry	1274
332.6 K, 140000 kPa, Bellows volumetry	1278
332.6 K, 150000 kPa, Bellows volumetry	1282
332.6 K, 160000 kPa, Bellows volumetry	1286
332.6 K, 170000 kPa, Bellows volumetry	1290
332.6 K, 180000 kPa, Bellows volumetry	1293
332.6 K, 190000 kPa, Bellows volumetry	1297
332.6 K, 200000 kPa, Bellows volumetry	1300
333.15 K, 101.33 kPa, Vibrating tube method	1210
352.6 K, 10000 kPa, Bellows volumetry	1200
352.6 K, 20000 kPa, Bellows volumetry	1207
352.6 K, 30000 kPa, Bellows volumetry	1213
352.6 K, 40000 kPa, Bellows volumetry	1219
352.6 K, 50000 kPa, Bellows volumetry	1224
352.6 K, 60000 kPa, Bellows volumetry	1230
352.6 K, 70000 kPa, Bellows volumetry	1235
352.6 K, 80000 kPa, Bellows volumetry	1240
352.6 K, 90000 kPa, Bellows volumetry	1245
352.6 K, 100000 kPa, Bellows volumetry	1249
352.6 K, 110000 kPa, Bellows volumetry	1254
352.6 K, 120000 kPa, Bellows volumetry	1258
352.6 K, 130000 kPa, Bellows volumetry	1262
352.6 K, 140000 kPa, Bellows volumetry	1266
352.6 K, 150000 kPa, Bellows volumetry	1270
352.6 K, 160000 kPa, Bellows volumetry	1274
352.6 K, 170000 kPa, Bellows volumetry	1278
352.6 K, 180000 kPa, Bellows volumetry	1282
352.6 K, 190000 kPa, Bellows volumetry	1286
352.6 K, 200000 kPa, Bellows volumetry	1289
353.15 K, 101.33 kPa, Vibrating tube method	1195.2
372.8 K, 10000 kPa, Bellows volumetry	1186
372.8 K, 20000 kPa, Bellows volumetry	1193
372.8 K, 30000 kPa, Bellows volumetry	1199
372.8 K, 40000 kPa, Bellows volumetry	1205
372.8 K, 50000 kPa, Bellows volumetry	1211
372.8 K, 60000 kPa, Bellows volumetry	1217
372.8 K, 70000 kPa, Bellows volumetry	1222
372.8 K, 80000 kPa, Bellows volumetry	1227
372.8 K, 90000 kPa, Bellows volumetry	1232
372.8 K, 100000 kPa, Bellows volumetry	1237
372.8 K, 110000 kPa, Bellows volumetry	1242
372.8 K, 120000 kPa, Bellows volumetry	1246
372.8 K, 130000 kPa, Bellows volumetry	1250
372.8 K, 140000 kPa, Bellows volumetry	1255
372.8 K, 150000 kPa, Bellows volumetry	1259
372.8 K, 160000 kPa, Bellows volumetry	1263
372.8 K, 170000 kPa, Bellows volumetry	1267
372.8 K, 180000 kPa, Bellows volumetry	1271
372.8 K, 190000 kPa, Bellows volumetry	1274
372.8 K, 200000 kPa, Bellows volumetry	1278
392.8 K, 10000 kPa, Bellows volumetry	1171
392.8 K, 20000 kPa, Bellows volumetry	1179
392.8 K, 30000 kPa, Bellows volumetry	1186
392.8 K, 40000 kPa, Bellows volumetry	1192
392.8 K, 50000 kPa, Bellows volumetry	1198
392.8 K, 60000 kPa, Bellows volumetry	1204
392.8 K, 70000 kPa, Bellows volumetry	1209
392.8 K, 80000 kPa, Bellows volumetry	1215
